Measurements from patent US5770573A, “CS-1 peptidomimetics, compositions and methods of using the same” (Cytel Corporation, priority 1995, dated 1998).
Numbered stars: 1 amine (or outer) side, 2 acyl side, 3 side chain; on linkers, the order of the positions; unused ones are H or OH. Square brackets hold non-standard residues; d marks the D form. Peptide text beside a SMILES is read from it. * marks the point of attachment. Cha = N[C@@H](CC1CCCCC1)C(=O)O; Tle = CC(C)(C)[C@H](N)C(=O)O; Nicotinoyl = O=C(c1cccnc1)*; PhAc = O=C(Cc1ccccc1)*; CO = O=C([*:1])[*:2]; Bz = O=C(c1ccccc1)*; NHPh = c1ccc(N*)cc1

These molecules were tested against VLA-4 (Homo sapiens, UniProt P05556+P13612) (assay: In vitro binding inhibition of 51Cr-labeled Jurkat cells to solid phase-bound CS-1 compound (SEQ ID NO:1)). Conditions: not given.
VLA-4, sequence (P13612 34-1032): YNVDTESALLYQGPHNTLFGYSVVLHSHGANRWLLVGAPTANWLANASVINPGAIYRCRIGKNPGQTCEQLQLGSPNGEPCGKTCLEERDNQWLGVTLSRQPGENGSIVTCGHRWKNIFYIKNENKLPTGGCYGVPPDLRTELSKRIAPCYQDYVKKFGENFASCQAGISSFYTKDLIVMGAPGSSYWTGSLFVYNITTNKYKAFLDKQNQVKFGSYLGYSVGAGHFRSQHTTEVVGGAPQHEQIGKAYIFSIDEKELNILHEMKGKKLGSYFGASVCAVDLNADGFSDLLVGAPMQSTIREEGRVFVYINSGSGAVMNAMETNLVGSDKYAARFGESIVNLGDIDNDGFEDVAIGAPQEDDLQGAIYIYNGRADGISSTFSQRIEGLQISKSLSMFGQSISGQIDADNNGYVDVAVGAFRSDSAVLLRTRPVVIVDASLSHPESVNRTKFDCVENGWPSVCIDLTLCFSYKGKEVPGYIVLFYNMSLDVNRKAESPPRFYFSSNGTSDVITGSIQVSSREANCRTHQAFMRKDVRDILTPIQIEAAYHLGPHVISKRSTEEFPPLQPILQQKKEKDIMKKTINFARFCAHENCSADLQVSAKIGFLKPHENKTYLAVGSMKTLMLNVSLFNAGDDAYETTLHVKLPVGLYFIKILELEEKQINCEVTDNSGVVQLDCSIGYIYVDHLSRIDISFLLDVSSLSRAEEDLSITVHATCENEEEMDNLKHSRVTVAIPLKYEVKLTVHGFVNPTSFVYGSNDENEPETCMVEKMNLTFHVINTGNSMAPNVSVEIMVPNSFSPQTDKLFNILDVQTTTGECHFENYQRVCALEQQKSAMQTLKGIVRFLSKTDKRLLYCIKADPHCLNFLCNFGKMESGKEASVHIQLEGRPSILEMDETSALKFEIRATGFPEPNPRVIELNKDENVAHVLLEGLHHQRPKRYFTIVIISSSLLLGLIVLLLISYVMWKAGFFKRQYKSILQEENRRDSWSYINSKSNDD
VLA-4, sequence (P05556 21-798): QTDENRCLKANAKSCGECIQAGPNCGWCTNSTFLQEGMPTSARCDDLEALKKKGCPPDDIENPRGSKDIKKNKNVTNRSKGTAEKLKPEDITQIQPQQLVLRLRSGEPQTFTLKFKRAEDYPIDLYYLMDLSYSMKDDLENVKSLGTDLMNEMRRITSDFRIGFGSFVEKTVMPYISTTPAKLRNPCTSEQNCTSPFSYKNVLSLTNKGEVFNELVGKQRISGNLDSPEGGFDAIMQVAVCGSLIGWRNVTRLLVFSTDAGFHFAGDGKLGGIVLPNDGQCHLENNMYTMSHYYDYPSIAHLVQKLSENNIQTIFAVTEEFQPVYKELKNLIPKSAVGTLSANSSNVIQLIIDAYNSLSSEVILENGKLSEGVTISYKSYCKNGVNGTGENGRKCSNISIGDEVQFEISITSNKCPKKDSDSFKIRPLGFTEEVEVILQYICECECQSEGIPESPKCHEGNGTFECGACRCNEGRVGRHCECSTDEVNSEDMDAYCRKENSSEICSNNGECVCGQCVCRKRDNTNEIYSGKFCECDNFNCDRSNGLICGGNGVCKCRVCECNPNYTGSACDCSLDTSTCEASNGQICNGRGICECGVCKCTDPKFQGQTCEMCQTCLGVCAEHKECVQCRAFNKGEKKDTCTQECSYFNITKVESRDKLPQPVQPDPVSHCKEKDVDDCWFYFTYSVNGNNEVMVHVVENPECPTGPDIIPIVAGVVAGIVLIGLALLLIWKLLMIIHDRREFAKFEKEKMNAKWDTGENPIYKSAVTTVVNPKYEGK
Assay type: cell-based
Design: inflammatory cells that contain the VLA-4 receptor [Jurkat cells; host or cells: Jurkat (human T lymphoblastic line)
Procedure: Binding inhibition is measured here as a concentration of compound that inhibits one-half the binding between a standard number of Jurkat cells and a standard amount of CS-1 compound bound to the surface of a microtiter plate well. Those concentrations are conveniently expressed as IC50 values, smaller numbers indicating a lower concentration required to inhibit 50 percent binding and therefore greater potency. Further specifics of this assay are provided hereinafter.
Jurkat cells (ATCC TIB 152), a human T lymphoblastic line, labeled with ^51 chromium were used to assay in vitro binding inhibition provided by various compounds discussed herein.
The plates were prepared as follows: The 25-mer CS-1 compound (SEQ ID NO:1) dissolved at 0.5-1 μg/ml in a buffer of 0.1M NaHCO3 at pH 9.5 that also contained 10 μg/ml of bovine serum albumin (BSA) or a conjugate of the CS-1 compound linked to […] (CS-1-OVA) dissolved at 1-2.5 μg/ml in the same buffer was used as the substrate. Each well of the microtiter plates was coated with 50 μl of substrate or buffer alone for controls. The wells were permitted to dry out completely and were then rinsed twice with PBS at pH 7.4. Non-specific binding sites of each well were then blocked using 200 μl per well of RPMI/1 percent BSA for two hours at room temperature.
Jurkat cells (3-5×10^6 cells) were placed into a 15 ml Falcon™ round-bottom tube with a cap. The tube was centrifuged, and the extra medium was then removed.
Two hundred microliters of a ^51 Cr labeling solution were added to the centrifuged cells and maintained in contact with the cells for 90-120 minutes in a warm room. […] Longer contact times provide a greater amount of labeling but lower cell viability.
The labeled cells are washed with (i) complete medium, (ii) 1 mM EDTA/PBS and then (iii) RPM1/1 percent BSA free of serum components. The cells are centrifuged after each washing. The cells are finally resuspended in serum-free RPMI/1 percent BSA at a concentration of 1×10^6 viable cells/ml, which provides a concentration that is diluted by one-half in the assay.
Inhibitor compounds are prepared as stock solutions at 20 mg/ml in DMSO in 1.5 ml cryogenic screwcap vials, and were stored at -70° C. Using Flow™ round-bottom or V-bottom microtiter plates, the inhibitor compounds were prepared at twice the assay concentration in RPMI/1 percent BSA at 60 μl/well.
Four initial dilutions were typically used.
The ^51 Cr-labeled cells ([…] at 60 μl/well) were then admixed with the diluted compound solutions. The admixtures were maintained at room temperature (about 22° C.) for 30 minutes.
One hundred microliters of each inhibitor compound/cell admixture were transferred to the substrate-coated wells. This was done in triplicate for each dilution. The resulting plates were incubated for 30 minutes at 37° C. and then washed gently three times with RPMI/1 percent BSA at 200 μl/well. Binding was observed microscopically, particularly after the second wash.
The bound cells were then lysed by the addition of a 0.5 percent solution of sodium dodecylsulfate in water at 100 μl/well. The resulting solutions were then processed for counting and calculation of IC50 values following usual procedures.
The data of Table 1 are normalized to the binding of SEQ ID NO: 3. […] Multiple assays for the same compound were averaged.
For CC[C@H](C)[C@H](N)C(=O)N[C@@H](CC(C)C)C(=O)N[C@@H](CC(=O)O)C(=O)N[C@H](C(=O)N1CCC[C@H]1C(N)=O)C(C)C [886.03], the “Relative Potency” value was 1.55. For CC[C@H](C)[C@H](N)C(=O)N[C@@H](CC(C)C)C(=O)N[C@@H](CC(=O)O)C(=O)N[C@H](C(=O)N1CCC[C@H]1C(=O)O)C(C)C [886.05] (H-ILDVP-OH), the “Relative Potency” value was 2. In the case of CC[C@H](C)[C@H](N)C(=O)N[C@@H](CC(C)C)C(=O)N[C@@H](CC(=O)O)C(=O)N[C@H](C(=O)N1CCC[C@@H]1C(N)=O)C(C)C [886.10], the “Relative Potency” value is reported as 5.38. CC[C@H](C)[C@H](N)C(=O)N[C@@H](CC(C)C)C(=O)N[C@@H](CC(=O)O)C(=O)N[C@@H](Cc1ccccc1)C(=O)N1CCC[C@@H]1C(N)=O [896.26] (H-ILDF[dP]-NH2) was tested, and the “Relative Potency” value was 5.63. CC(C)C[C@H](NC(=O)[C@@H](N)Cc1ccccc1)C(=O)N[C@@H](CC(=O)O)C(=O)N[C@@H](Cc1ccccc1)C(=O)N1CCC[C@@H]1C(N)=O [896.27] (H-FLDF[dP]-NH2) was tested, and the “Relative Potency” value was 16.9. With CC[C@H](C)[C@H](N)C(=O)N[C@@H](CC1CCCCC1)C(=O)N[C@@H](CC(=O)O)C(=O)N[C@@H](Cc1ccccc1)C(=O)N1CCC[C@@H]1C(N)=O [896.29] (H-I[Cha]DF[dP]-NH2) the “Relative Potency” value was 2.27. For NC(=O)[C@H]1CCCN1C(=O)[C@H](Cc1ccccc1)NC(=O)[C@H](CC(=O)O)NC(=O)[C@H](CC1CCCCC1)NC(=O)[C@@H](N)Cc1ccccc1 [896.30] (H-F[Cha]DF[dP]-NH2), the “Relative Potency” value was 2.69. For CC[C@H](C)[C@H](N)C(=O)N[C@@H](CC1CCCCC1)C(=O)N[C@@H](CC(=O)O)C(=O)N[C@H](C(=O)N1CCC[C@@H]1C(N)=O)C(C)C [896.32] (H-I[Cha]DV[dP]-NH2), the “Relative Potency” value was 1.41. In the case of CC(C)[C@H](NC(=O)[C@H](CC(=O)O)NC(=O)[C@H](CC1CCCCC1)NC(=O)[C@@H](N)Cc1ccccc1)C(=O)N1CCC[C@@H]1C(N)=O [896.33] (H-F[Cha]DV[dP]-NH2), the “Relative Potency” value is reported as 2.61. With Cc1cccc(C)c1C(=O)N[C@@H](CC(C)C)C(=O)N[C@@H](CC(=O)O)C(=O)N[C@H](C(=O)N1CCC[C@@H]1C(N)=O)C(C)C [896.36] the “Relative Potency” value was 3.13. For Cc1ccc(C(=O)N[C@@H](CC(C)C)C(=O)N[C@@H](CC(=O)O)C(=O)N[C@H](C(=O)N2CCC[C@@H]2C(N)=O)C(C)C)cc1C [896.37], the “Relative Potency” value was 5.01. With Cc1cccc(C(=O)N[C@@H](CC(C)C)C(=O)N[C@@H](CC(=O)O)C(=O)N[C@H](C(=O)N2CCC[C@@H]2C(N)=O)C(C)C)c1C [896.38] the “Relative Potency” value was 6.57. For CC(C)C[C@H](NC(=O)CCc1ccccc1)C(=O)N[C@@H](CC(=O)O)C(=O)N[C@H](C(=O)N1CCC[C@@H]1C(N)=O)C(C)C [896.40], the “Relative Potency” value was 5.32. With CC(C)C[C@H](NC(=O)c1cccnc1)C(=O)N[C@@H](CC(=O)O)C(=O)N[C@H](C(=O)N1CCC[C@@H]1C(N)=O)C(C)C [896.42] the “Relative Potency” value was 38.1. In the case of CC(C)C[C@H](NC(=O)c1ccc2ccccc2c1)C(=O)N[C@@H](CC(=O)O)C(=O)N[C@H](C(=O)N1CCC[C@@H]1C(N)=O)C(C)C [896.44], the “Relative Potency” value is reported as 2.5. In the case of CC(C)C[C@H](NC(=O)CCC1CCCCC1)C(=O)N[C@@H](CC(=O)O)C(=O)N[C@H](C(=O)N1CCC[C@@H]1C(N)=O)C(C)C [896.45], the “Relative Potency” value is reported as 1.75. For CCC(C)CC(=O)N[C@@H](CC(C)C)C(=O)N[C@@H](CC(=O)O)C(=O)N[C@H](C(=O)N1CCC[C@@H]1C(N)=O)C(C)C (stereo partly drawn) [896.46], the “Relative Potency” value was 6.57. In the case of CC(C)CCC(=O)N[C@@H](CC(C)C)C(=O)N[C@@H](CC(=O)O)C(=O)N[C@H](C(=O)N1CCC[C@@H]1C(N)=O)C(C)C [896.47], the “Relative Potency” value is reported as 5.01. For CC(C)C[C@H](NC(=O)CC1CCCCC1)C(=O)N[C@@H](CC(=O)O)C(=O)N[C@H](C(=O)N1CCC[C@@H]1C(N)=O)C(C)C [896.48], the “Relative Potency” value was 3.76. In the case of CC(C)C[C@H](NC(=O)C1CCCCC1)C(=O)N[C@@H](CC(=O)O)C(=O)N[C@H](C(=O)N1CCC[C@@H]1C(N)=O)C(C)C [896.49], the “Relative Potency” value is reported as 9.08. With CC(C)C[C@H](NC(=O)C12CC3CC(CC(C3)C1)C2)C(=O)N[C@@H](CC(=O)O)C(=O)N[C@H](C(=O)N1CCC[C@@H]1C(N)=O)C(C)C [896.50] the “Relative Potency” value was 1.38. For CC(C)C[C@@H](C(=O)N[C@@H](CC(=O)O)C(=O)N[C@H](C(=O)N1CCC[C@@H]1C(N)=O)C(C)C)N1C(=O)c2ccccc2C1=O [896.51], the “Relative Potency” value was 110. CC(C)C[C@H](NC(=O)c1ccccn1)C(=O)N[C@@H](CC(=O)O)C(=O)N[C@H](C(=O)N1CCC[C@@H]1C(N)=O)C(C)C [896.54] was tested, and the “Relative Potency” value was 13. CC(C)C[C@H](NC(=O)c1cccnc1)C(=O)N[C@@H](CC(=O)O)C(=O)N[C@@H](Cc1ccccc1)C(=O)N1CCC[C@@H]1C(N)=O [896.55] (Nicotinoyl-LDF[dP]-NH2) was tested, and the “Relative Potency” value was 105. For CC(C)C[C@H](NC(=O)Nc1ccccc1)C(=O)N[C@@H](CC(=O)O)C(=O)N[C@@H](Cc1ccccc1)C(=O)N1CCC[C@@H]1C(N)=O [896.62] ({NHPh-CO}-LDF[dP]-NH2), the “Relative Potency” value was 257.

Same assay, conditions: binding inhibition potency relative to standard compound of SEQ ID NO:3 = 1 (normalized IC50); about one-tenth or less assigned zero
CC(C)C[C@H](NC(=O)c1ccccc1)C(=O)N[C@@H](CC(=O)O)C(=O)N[C@@H](Cc1ccccc1)C(=O)N1CCC[C@@H]1C(N)=O [896.28] (Bz-LDF[dP]-NH2) was tested, and the “Relative Potency” value was 44.6. NC(=O)[C@H]1CCCN1C(=O)[C@H](Cc1ccccc1)NC(=O)[C@H](CC(=O)O)NC(=O)[C@H](CC1CCCCC1)NC(=O)c1ccccc1 [896.31] (Bz-[Cha]DF[dP]-NH2) was tested, and the “Relative Potency” value was 11. In the case of CC(C)[C@H](NC(=O)[C@H](CC(=O)O)NC(=O)[C@H](CC1CCCCC1)NC(=O)c1ccccc1)C(=O)N1CCC[C@@H]1C(N)=O [896.34] (Bz-[Cha]DV[dP]-NH2), the “Relative Potency” value is reported as 6.73. In the case of CC(C)C[C@H](NC(=O)c1ccccc1)C(=O)N[C@@H](CC(=O)O)C(=O)N[C@H](C(=O)N1CCC[C@H]1C(N)=O)C(C)C [896.35], the “Relative Potency” value is reported as 16. With CC(C)C[C@H](NC(=O)Cc1ccccc1)C(=O)N[C@@H](CC(=O)O)C(=O)N[C@H](C(=O)N1CCC[C@@H]1C(N)=O)C(C)C [896.39] the “Relative Potency” value was 47.5. With CC(C)C[C@H](NC(=O)/C=C/c1ccccc1)C(=O)N[C@@H](CC(=O)O)C(=O)N[C@H](C(=O)N1CCC[C@@H]1C(N)=O)C(C)C [896.41] the “Relative Potency” value was 1.97. In the case of CC(C)C[C@H](NC(=O)c1cccc2ccccc12)C(=O)N[C@@H](CC(=O)O)C(=O)N[C@H](C(=O)N1CCC[C@@H]1C(N)=O)C(C)C [896.43], the “Relative Potency” value is reported as 4.38. With CC(C)C[C@H](NC(=O)Cc1ccccc1)C(=O)N[C@@H](CC(=O)O)C(=O)N[C@H](C(=O)N1CCC[C@@H]1C(N)=O)C(C)(C)C [896.56] (PhAc-LD[Tle][dP]-NH2) the “Relative Potency” value was 1.72. CC(C)C[C@H](NC(=O)Cc1ccccc1)C(=O)N[C@@H](CS)C(=O)N[C@@H](Cc1ccccc1)C(=O)N1CCC[C@@H]1C(N)=O [896.59] (PhAc-LCF[dP]-NH2) was tested, and the “Relative Potency” value was 0. In the case of CC(C)C[C@H](NC(=O)Cc1ccccc1)C(=O)N[C@@H](CC(=O)O)C(=O)N[C@@H](Cc1c[nH]c2ccccc12)C(=O)N1CCC[C@@H]1C(N)=O [896.60] (PhAc-LDW[dP]-NH2), the “Relative Potency” value is reported as 131. In the case of CC(C)C[C@H](NC(=O)Cc1ccccc1)C(=O)N[C@@H](CC(=O)O)C(=O)N[C@@H](Cc1ccc(O)cc1)C(=O)N1CCC[C@@H]1C(N)=O [896.61] (PhAc-LDY[dP]-NH2), the “Relative Potency” value is reported as 612.
